The source of these data is ChEMBL document CHEMBL5356971, “Optimization of the Antibacterial Spectrum and the Developability Profile of the Novel-Class Natural Product Corramycin” (J Med Chem, 2023).

Series [1] deals with Escherichia coli. The experiment in a line: Antimicrobial activity against Escherichia coli assessed as microbial growth inhibition. The class given is functional.
In series [2] the test system is Klebsiella pneumoniae. The experiment in a line: Antimicrobial activity against Klebsiella pneumoniae assessed as microbial growth inhibition. Type of series: functional.
A further series relates to Pseudomonas aeruginosa. The experiment in a line: Antimicrobial activity against Pseudomonas aeruginosa assessed as microbial growth inhibition. Type of series: functional.
The test system of series [3] is Escherichia coli. The experiment in a line: Antibacterial activity against Escherichia coli infected in mouse model assessed as mouse survival at 20 mg/kg iv. Type of series: functional.
A short description of series [4]: Lipophilicity, log D of the compound at pH 7.4. Conditions: buffer. Type of series: physicochemical.
Series [5] in a line: Aqueous solubility of compound in PBS at pH 7.4. The class given is physicochemical.
The nature of series [6]: Permeability of compound in human Caco-2 cells. Conditions: read-out: permeability. Type of series: ADME, cell-based.
Another series concerns HepG2. The experiment in a line: Cytotoxicity against human HepG2 cells assessed as inhibition of cell growth at 30 uM incubated for 40 hrs by celltiterglo assay. Type of series: functional. For orientation: ATP-based viability assays read luminescence as a measure of living cells.
Series [7] has as its target Voltage-gated inwardly rectifying potassium channel KCNH2 (Homo sapiens, UniProt Q12809). The series can be described thus: Inhibition of hERG. Type of series: toxicity. (In general: hERG is a cardiac potassium channel; its block is linked to QT prolongation.)
The target in series [8] is T1, A-type voltage-gated potassium channel KCND3 (Homo sapiens, UniProt Q9UK17).
T1 sequence (Q9UK17 whole entry): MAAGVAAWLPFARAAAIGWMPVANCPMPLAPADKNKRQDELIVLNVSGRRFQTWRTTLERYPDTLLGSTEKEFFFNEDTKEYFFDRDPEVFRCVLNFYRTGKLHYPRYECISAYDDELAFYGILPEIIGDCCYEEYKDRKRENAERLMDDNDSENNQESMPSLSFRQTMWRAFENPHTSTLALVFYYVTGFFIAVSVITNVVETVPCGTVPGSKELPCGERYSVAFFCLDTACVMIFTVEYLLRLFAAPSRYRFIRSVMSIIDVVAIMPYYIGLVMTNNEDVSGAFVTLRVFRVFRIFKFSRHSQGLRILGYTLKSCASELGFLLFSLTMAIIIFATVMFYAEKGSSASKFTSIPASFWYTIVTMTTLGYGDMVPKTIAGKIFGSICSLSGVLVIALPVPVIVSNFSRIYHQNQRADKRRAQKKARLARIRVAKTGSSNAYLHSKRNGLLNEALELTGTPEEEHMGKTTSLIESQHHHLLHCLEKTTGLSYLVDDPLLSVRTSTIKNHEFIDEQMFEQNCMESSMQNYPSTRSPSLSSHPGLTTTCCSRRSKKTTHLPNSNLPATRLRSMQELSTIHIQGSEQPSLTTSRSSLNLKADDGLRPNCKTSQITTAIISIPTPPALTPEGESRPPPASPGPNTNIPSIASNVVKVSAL
The experiment in a line: Inhibition of Kv4.3 (unknown origin).

Series [9] concerns the target Voltage-dependent T-type calcium channel subunit alpha-1G (Homo sapiens, UniProt O43497). The experiment in a line: Inhibition of Cav3.1 (unknown origin).
Series [10] addresses Sodium channel protein type 2 subunit alpha (Homo sapiens, UniProt Q99250). The series can be described thus: Inhibition of Nav1.2 (unknown origin).
For series [11], the target named is Sodium channel protein type 5 subunit alpha (Homo sapiens, UniProt Q14524). The experiment in a line: Inhibition of Nav1.5 (unknown origin).
A short description of series [12]: Metabolic stability in mouse kidney assessed as parent compound remaining measured after 4 hrs by UPLC-MS analysis. Conditions: read-out: Stability. The class given is ADME, tissue-based.
Series [13] is described as follows: Metabolic stability in mouse lung assessed as parent compound remaining measured after 4 hrs by UPLC-MS analysis. Type of series: ADME, tissue-based. The settings on record: mouse lung, read-out: Stability.
Series [14] in a line: Metabolic stability in mouse lung assessed as parent compound remaining measured after 1 hrs by UPLC-MS analysis. The class given is ADME, tissue-based. Conditions: mouse lung, read-out: Stability.
Series [15] is described as follows: Metabolic stability in mouse kidney assessed as parent compound remaining measured after 1 hrs by UPLC-MS analysis. The class given is ADME, tissue-based. The settings on record: read-out: Stability.
The nature of series [16]: Metabolic stability in mouse lung assessed as M1 metabolite formation measured upto 4 hrs by UPLC-MS analysis. Type of series: ADME, tissue-based.
Series [17] in a line: Metabolic stability in mouse kidney assessed as M1 metabolite formation measured upto 4 hrs by UPLC-MS analysis. Type of series: ADME, tissue-based.
Series [18] can be described thus: Metabolic stability in mouse kidney assessed as M2 metabolite formation measured upto 4 hrs by UPLC-MS analysis. Type of series: ADME, tissue-based.
Series [19] concerns Escherichia coli. The experiment in a line: Antibacterial activity against Escherichia coli ATCC 35218 assessed as reduction in microbial growth incubated for 20 to 22 hrs by CLSI based analysis. The class given is functional. The settings on record: time 20-22 hrs.
Series [20] deals with Klebsiella pneumoniae. The experiment in a line: Antibacterial activity against Klebsiella pneumoniae ATCC 13883 assessed as reduction in microbial growth incubated for 20 to 22 hrs by CLSI based analysis. Conditions: time 20-22 hrs. The class given is functional.
Series [21] concerns Acinetobacter baumannii. The experiment in a line: Antibacterial activity against Acinetobacter baumannii ATCC 19606 assessed as reduction in microbial growth incubated for 20 to 22 hrs by CLSI based analysis. The class given is functional. Conditions: time 20-22 hrs.
Series [22] has as its system Escherichia coli. The series can be described thus: Antibacterial activity against Escherichia coli ATCC 35218 infected in Swiss albino mouse model of Septicaemia infection assessed as log reduction in Septicaemia in blood at 20 mg/kg , iv preincubated for 4 hrs followed by bacterial infection and measured after 4 hrs post infection. Type of series: functional. The settings on record: time 8 hrs.

For series [23], the system named is Escherichia coli. The experiment in a line: Antibacterial activity against Escherichia coli D22 assessed as reduction in microbial growth incubated for 20 to 22 hrs by CLSI based analysis. Type of series: functional. The settings on record: time 20-22 hrs.
The subject of series [24] is Escherichia coli. The experiment in a line: Antibacterial activity against Escherichia coli D21 assessed as reduction in microbial growth incubated for 20 to 22 hrs by CLSI based analysis. Type of series: functional. Conditions: time 20-22 hrs.
The test system of series [25] is Escherichia coli. The series can be described thus: Antibacterial activity against wild type Escherichia coli ATCC 35218 assessed as reduction in microbial growth incubated for 20 to 22 hrs by CLSI based analysis. Type of series: functional. Conditions: time 20-22 hrs.
Series [26] relates to Escherichia coli. The experiment in a line: Antibacterial activity against Escherichia coli ATCC 35218 harboring SbmA assessed as reduction in microbial growth incubated for 20 to 22 hrs by CLSI based analysis. The settings on record: time 20-22 hrs. Type of series: functional.
For series [27], the system named is Klebsiella pneumoniae. The series can be described thus: Antibacterial activity against wild type Klebsiella pneumoniae ATCC 13883 assessed as reduction in microbial growth incubated for 20 to 22 hrs by CLSI based analysis. Type of series: functional. The settings on record: time 20-22 hrs.
In series [28] the test system is Klebsiella pneumoniae. The series can be described thus: Antibacterial activity against Klebsiella pneumoniae ATCC 13883 harboring SbmA assessed as reduction in microbial growth incubated for 20 to 22 hrs by CLSI based analysis. Type of series: functional. Conditions: time 20-22 hrs.
Series [29] relates to Acinetobacter baumannii. The series can be described thus: Antibacterial activity against wild type Acinetobacter baumannii ATCC 19606 assessed as reduction in microbial growth incubated for 20 to 22 hrs by CLSI based analysis. The class given is functional. Conditions: time 20-22 hrs.
The subject of series [30] is Escherichia coli. The series can be described thus: Antibacterial activity against Escherichia coli ATCC 35218 infected in Swiss albino mouse model of Septicaemia infection assessed as log reduction in Septicaemia in blood at 10 mg/kg , iv preincubated for 4 hrs followed by bacterial infection and measured after 4 hrs post infection. The class given is functional. The settings on record: time 8 hrs.

In brackets after ≈: the same amount, converted by molar mass. Numbered stars: 1 amine (or outer) side, 2 acyl side, 3 side chain; on linkers, the order of the positions; unused ones are H or OH. Square brackets hold non-standard residues; d marks the D form. Peptide text beside a SMILES is read from it. * marks the point of attachment. Ava(2S,3R-(OH)2,4S-OMe) = CO[C@@H](CN[*:1])[C@H](O)[C@H](O)C(=O)[*:2]; dHis(βS-OH,π-Me) = Cn1cncc1[C@@H](O)[C@@H](N)C(=O)O; Butanoyl(2R-OH,3S-OH) = C[C@H](O)[C@@H](O)C(=O)*; Val(3-OH) = CC(C)(O)[C@H](N)C(=O)O; NMeF = CN[C@@H](Cc1ccccc1)C(=O)O

Voltage-dependent T-type calcium channel subunit alpha-1G, sequence (O43497 whole entry): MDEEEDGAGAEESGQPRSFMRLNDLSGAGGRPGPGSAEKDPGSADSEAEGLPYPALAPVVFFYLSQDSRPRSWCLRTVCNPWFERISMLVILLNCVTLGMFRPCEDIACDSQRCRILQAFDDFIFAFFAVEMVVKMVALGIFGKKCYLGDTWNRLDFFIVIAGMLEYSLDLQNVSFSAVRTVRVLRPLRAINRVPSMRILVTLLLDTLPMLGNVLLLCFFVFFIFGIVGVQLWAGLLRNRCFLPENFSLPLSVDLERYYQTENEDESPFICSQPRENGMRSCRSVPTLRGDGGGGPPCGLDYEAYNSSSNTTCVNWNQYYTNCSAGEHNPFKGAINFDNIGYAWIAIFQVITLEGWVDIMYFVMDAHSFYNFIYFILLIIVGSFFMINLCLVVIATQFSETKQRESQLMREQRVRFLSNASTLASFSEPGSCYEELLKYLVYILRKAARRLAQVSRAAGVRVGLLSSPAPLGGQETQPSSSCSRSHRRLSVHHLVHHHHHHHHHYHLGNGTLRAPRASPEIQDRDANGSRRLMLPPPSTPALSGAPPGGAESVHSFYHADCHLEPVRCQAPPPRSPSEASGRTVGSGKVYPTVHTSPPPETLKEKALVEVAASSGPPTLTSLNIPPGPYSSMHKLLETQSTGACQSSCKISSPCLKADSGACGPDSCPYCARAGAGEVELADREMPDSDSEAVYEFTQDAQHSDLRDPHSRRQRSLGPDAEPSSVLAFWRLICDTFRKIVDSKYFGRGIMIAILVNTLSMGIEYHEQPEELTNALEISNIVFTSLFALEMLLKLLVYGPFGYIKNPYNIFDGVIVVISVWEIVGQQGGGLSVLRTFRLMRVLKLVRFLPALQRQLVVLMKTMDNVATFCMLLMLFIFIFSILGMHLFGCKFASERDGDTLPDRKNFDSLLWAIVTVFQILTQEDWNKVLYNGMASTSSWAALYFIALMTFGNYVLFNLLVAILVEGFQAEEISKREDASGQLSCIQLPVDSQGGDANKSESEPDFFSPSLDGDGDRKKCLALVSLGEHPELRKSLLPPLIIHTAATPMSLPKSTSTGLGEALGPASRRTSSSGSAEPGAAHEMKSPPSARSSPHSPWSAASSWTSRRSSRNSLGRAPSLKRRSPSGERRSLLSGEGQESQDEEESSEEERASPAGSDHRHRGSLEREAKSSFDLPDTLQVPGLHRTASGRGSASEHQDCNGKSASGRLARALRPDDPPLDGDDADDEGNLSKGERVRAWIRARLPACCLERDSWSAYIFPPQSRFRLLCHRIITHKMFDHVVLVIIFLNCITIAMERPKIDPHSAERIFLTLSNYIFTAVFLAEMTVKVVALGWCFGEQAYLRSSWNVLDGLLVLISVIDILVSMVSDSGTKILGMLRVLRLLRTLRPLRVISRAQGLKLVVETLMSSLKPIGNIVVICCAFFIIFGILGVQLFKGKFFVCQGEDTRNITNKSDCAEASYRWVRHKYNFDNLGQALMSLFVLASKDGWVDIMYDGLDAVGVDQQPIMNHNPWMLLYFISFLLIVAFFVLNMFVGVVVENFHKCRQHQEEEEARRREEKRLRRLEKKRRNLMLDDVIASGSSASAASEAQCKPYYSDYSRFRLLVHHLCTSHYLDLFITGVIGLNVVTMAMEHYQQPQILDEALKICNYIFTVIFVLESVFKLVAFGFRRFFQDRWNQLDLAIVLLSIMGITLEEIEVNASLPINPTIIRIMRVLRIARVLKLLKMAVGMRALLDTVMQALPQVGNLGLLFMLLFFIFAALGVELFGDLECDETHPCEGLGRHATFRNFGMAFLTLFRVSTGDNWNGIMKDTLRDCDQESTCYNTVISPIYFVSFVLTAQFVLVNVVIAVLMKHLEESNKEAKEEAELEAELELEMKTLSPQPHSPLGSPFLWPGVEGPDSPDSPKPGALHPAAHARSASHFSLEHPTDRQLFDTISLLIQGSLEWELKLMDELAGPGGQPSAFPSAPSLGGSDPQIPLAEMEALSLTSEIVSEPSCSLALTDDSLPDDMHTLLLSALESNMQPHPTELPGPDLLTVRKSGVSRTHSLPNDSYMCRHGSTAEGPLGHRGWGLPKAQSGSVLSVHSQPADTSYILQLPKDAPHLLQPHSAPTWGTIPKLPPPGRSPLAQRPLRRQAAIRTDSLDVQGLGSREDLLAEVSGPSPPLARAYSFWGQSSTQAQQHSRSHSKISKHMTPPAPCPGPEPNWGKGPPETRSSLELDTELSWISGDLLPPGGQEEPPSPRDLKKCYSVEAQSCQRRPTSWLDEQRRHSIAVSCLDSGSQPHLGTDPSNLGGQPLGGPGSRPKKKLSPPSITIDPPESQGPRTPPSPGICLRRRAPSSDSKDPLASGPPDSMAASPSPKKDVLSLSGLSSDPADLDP
Sodium channel protein type 2 subunit alpha, sequence (Q99250 whole entry): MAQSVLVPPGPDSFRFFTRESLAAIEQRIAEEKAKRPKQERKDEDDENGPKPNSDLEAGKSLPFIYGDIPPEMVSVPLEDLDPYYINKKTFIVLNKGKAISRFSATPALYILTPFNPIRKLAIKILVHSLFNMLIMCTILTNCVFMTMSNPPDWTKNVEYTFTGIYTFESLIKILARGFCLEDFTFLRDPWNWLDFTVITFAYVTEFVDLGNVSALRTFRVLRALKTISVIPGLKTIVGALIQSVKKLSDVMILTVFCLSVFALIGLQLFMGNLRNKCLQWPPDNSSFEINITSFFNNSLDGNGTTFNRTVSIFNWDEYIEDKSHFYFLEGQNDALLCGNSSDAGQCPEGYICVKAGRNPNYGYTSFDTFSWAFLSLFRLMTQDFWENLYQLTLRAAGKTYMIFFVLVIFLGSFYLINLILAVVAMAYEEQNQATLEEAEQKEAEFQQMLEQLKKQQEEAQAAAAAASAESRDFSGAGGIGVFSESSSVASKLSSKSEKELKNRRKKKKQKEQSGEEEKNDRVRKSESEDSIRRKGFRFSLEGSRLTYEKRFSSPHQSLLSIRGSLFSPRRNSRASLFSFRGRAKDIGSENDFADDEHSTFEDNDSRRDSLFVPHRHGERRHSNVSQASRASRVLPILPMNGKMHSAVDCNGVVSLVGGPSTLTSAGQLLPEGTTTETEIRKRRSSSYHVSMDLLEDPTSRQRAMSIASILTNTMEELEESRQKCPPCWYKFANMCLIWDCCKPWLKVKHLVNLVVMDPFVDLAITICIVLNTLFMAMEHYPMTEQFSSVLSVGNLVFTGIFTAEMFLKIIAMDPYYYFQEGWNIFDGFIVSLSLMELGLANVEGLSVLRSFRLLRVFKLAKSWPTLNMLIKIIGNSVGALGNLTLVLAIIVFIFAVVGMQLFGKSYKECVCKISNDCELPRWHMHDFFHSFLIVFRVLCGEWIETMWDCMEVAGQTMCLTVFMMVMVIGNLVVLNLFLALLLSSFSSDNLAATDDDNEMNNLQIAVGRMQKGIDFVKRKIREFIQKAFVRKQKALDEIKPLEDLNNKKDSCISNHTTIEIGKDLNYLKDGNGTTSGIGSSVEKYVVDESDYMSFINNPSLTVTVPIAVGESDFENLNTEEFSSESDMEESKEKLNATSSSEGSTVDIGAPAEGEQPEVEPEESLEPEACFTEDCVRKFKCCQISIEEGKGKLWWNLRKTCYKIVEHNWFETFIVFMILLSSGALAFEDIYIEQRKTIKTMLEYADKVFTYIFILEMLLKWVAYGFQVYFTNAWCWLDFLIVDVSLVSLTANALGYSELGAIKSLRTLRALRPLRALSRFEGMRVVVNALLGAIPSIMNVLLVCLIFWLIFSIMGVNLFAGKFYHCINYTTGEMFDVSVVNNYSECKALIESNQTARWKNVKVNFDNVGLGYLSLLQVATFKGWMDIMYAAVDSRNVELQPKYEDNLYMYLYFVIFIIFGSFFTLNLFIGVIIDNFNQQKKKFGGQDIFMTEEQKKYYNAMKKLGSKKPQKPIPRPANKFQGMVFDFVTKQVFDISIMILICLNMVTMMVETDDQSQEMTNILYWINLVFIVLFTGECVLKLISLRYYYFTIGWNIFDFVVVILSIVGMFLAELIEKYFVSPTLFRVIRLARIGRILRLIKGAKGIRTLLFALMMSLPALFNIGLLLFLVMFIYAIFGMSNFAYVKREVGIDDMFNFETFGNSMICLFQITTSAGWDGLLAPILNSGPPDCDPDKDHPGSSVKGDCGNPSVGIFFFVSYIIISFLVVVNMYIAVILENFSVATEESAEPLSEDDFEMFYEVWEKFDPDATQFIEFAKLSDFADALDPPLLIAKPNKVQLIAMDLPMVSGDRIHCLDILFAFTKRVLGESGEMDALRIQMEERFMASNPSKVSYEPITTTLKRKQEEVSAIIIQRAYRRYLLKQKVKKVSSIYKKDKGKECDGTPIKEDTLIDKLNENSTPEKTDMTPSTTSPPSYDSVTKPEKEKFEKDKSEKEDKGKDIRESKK

Take `CO[C@@H](CNC(=O)[C@H](NC(=O)[C@H](O)[C@H](C)O)[C@H](O)c1cncn1C)[C@H](O)[C@H](O)C(=O)N(C)[C@@H](Cc1ccccc1)C(=O)NCC(=O)N[C@H](C(=O)N[C@@H](CO)C(=O)N[C@H](C(=O)N[C@@H](CC(C)C)C(=O)N[C@@H](CO)C(=O)O)C(C)(C)O)C(C)(C)O` ({Butanoyl(2R-OH,3S-OH)}-[dHis(βS-OH,π-Me)][Ava(2S,3R-(OH)2,4S-OMe)][NMeF]G[Val(3-OH)]S[Val(3-OH)]LS-OH): the MIC (in general, the lowest concentration that inhibits growth of the organism) in the series on Escherichia coli [1] was 1 µg/mL (≈ 0.844 µM); in the series on Klebsiella pneumoniae [2], no less than 64 µg/mL; with Pseudomonas aeruginosa, greater than 64 µg/mL; in the series on Escherichia coli [19], 4 µg/mL; in the series on Klebsiella pneumoniae [20], 16 µg/mL; in the series with Acinetobacter baumannii [21] it was greater than 32 µg/mL. For the same molecule, the MIC with Escherichia coli [23] was determined as 0.25 µg/mL; in the series on Escherichia coli [24], 4 µg/mL; in the series on Escherichia coli [25], 4 µg/mL; in the series on Escherichia coli [26], 4 µg/mL; with Klebsiella pneumoniae [27], 16 µg/mL; in the series on Klebsiella pneumoniae [28] it was 16 µg/mL. In the series on Acinetobacter baumannii [29], the MIC is greater than 32 µg/mL. For the same molecule, the figures for the Activity entry in the series with Escherichia coli [3] and in the series with Escherichia coli [22] were “<=60%” and -3.3 log10CFU, respectively. Further, the logD (as a rule, lipophilicity at a set pH, counting ionised and neutral species) in series [4] is 0.68. For the same molecule, in [5], the concentration in solution (solubility) came to 2800 µg/mL (≈ 2360 µM). Also, the Papp in [6] was less than 10 ×10⁻⁶ cm/s. In the series with HepG2, the inhibition (as a rule, how much of the control response was suppressed) at 30 µM was 0%. Also, the IC50 in series [7], in [8], in series [9], in series [10] and in series [11] was greater than 30 µM throughout. For the same molecule, the remaining at 4 h in [12] is 6%; in series [13] it was 1%. The remaining at 1 h in series [14] stood at 7%; in series [15], 41%. Further, the Drug metabolism result in [16], in [17] and in series [18] was “Metabolite_Detected” throughout.
Consider `CO[C@@H](CNC(=O)[C@H](NC(=O)[C@H](O)[C@H](C)O)[C@H](O)c1cncn1C)[C@H](O)[C@H](O)C(=O)N(C)[C@@H](Cc1ccccc1)C(=O)NCC(=O)N[C@H](C(=O)N[C@@H](CO)C(=O)N[C@H](C(=O)N[C@H](C(=O)N[C@@H](CO)C(=O)O)C(C)(C)C)C(C)(C)O)C(C)(C)O`, for which the remaining at 4 h turned out to be 72% in series [12] and 104% in series [13]. For the same molecule, the remaining at 1 h in [14] amounted to 105%; in series [15] it was 104%. For the same molecule, the MIC was 2 µg/mL in the series on Escherichia coli [19], 2 µg/mL in the series with Klebsiella pneumoniae [20] and greater than 32 µg/mL with Acinetobacter baumannii [21]. Besides, the Activity in the series with Escherichia coli [30] is recorded as -5.9 log10CFU.
